{"source": "paper PMC9921564", "about": "“Novel Indole-Containing Hybrids Derived from Millepachine: Synthesis, Biological Evaluation and Antitumor Mechanism Study” (Molecules, 2023)", "key": {"[1]": {"system": "C42B (human prostate cancer line)", "assay": "CCK-8 antiproliferative assay, C42B", "assay_type": "cell-based", "conditions": "48 h, read-out: IC50, Mean ± SE, C42B"}, "A549 cells": {"system": "A549 cells", "assay": "intracellular microtubule morphology by immunofluorescence", "assay_type": "cell-based, human", "conditions": "A549, 10, 20 and 50 nM, 12 h", "experimental": "(§1) Tubulin–microtubule homeostasis is crucial for cell mitosis.\n(§2) Figure 2 Effect of compound 14b on tubulin. […] The experiments were performed at least three times, and representative images are shown. Scale bars are 10 μm. […] The backbone of tubulin is shown in ribbon representation (α-tubulin, yellow; β-tubulin, green). […] The data were shown as mean ± SE (standard error) of at least three independent experiments.\n(§3) S Ⅳ. Biological evaluation methods\n(§4) The cells grown in logarithmical phase were seeded in 96-well plates with the density of 5×10^3/well.\n(§5) After 24 h, the medium containing different concentrations of tested compounds were added for another 48 h. Then, CCK-8 reagents were added to cells and continued to culture for 2 h. The optical density was recorded with a microplate reader at 570 nm (Thermo Scientific, Varioskan LUX). All the experiments were repeated independently at least three times and the IC50 values were calculated […]\n(§6) S2. In vitro tubulin polymerization inhibition assay\n(§7) The in vitro tubulin polymerization inhibition assay was conducted according to the manufacturer ’s instruction (cytoskeleton, cat. no. BK011P). Briefly, 5 μL of the tested compounds at the indicated"}, "tubulin": {"biological_target": "T1, tubulin (Sus scrofa, UniProt P02554)", "T1 construct": "purchased cytoskeleton, Inc. BK011P", "assay": "in vitro tubulin polymerization inhibition assay", "assay_type": "biochemical", "experimental": "as §1, §2, §3, §4, §5, §6, §7"}, "[2]": {"system": "MCF-10A (normal human mammary epithelial cells)", "assay": "CCK-8 cytotoxicity, MCF-10A normal cells", "assay_type": "cell-based", "from_the_text": "A549 (non-small-cell-lung cancer cell line), Caski (human epithelial cervical cancer cell line), HepG2 (human liver carcinoma cell line), MCF-7 (human breast carcinoma cell line), C42B (human prostate cancer line C42B), L-02 (human normal hepatocytes), RWPE-1 (human prostate epithelial cells) and MCF-10A (human normal mammary epithelial cells) were obtained from National Collection of Authenticated Cell Cultures (Shanghai, China). A549/CDDP (A549 cell line resistant to cisplatin), C42B/ENZR (C42b cell line resistant to Enzalutamide), MCF-7/DOX (MCF-7 cell line resistant to doxorubicin), A2780/TAX (human ovarian cancer cell line A2780 resistant to taxol) and HCT-8/VCR (human ileocecum carcinoma cell lines HCT-8 resistant to vincristine) were kindly provided by Professor Junjian Wang and Professor Xingshu Li at Sun Yat-Sen University, China. […]\nas §5, with “Then, CCK-8 reagents were added to cells and continued to culture for 2 h.” left out"}, "[3]": {"system": "MCF-7 (human breast carcinoma cell line)", "assay": "CCK-8 antiproliferative assay, MCF-7", "assay_type": "cell-based", "conditions": "MCF7, 48 h, read-out: IC50, Mean ± SE, MCF-7"}, "[4]": {"system": "HCT-8/VCR (HCT-8 cell line resistant to vincristine)", "assay": "CCK-8 cytotoxicity, HCT-8/VCR", "assay_type": "cell-based", "conditions": "Homo sapiens, 48 h, CCK-8, vincristine-resistant, read-out: IC50, Mean ± SE, HCT-8/VCR", "experimental": "Besides the high cytotoxicity, drug resistance is the other limiting factor of chemotherapeutics. In this study, the cytotoxicities of compound 14b towards five kinds of drug-resistant cancer cell lines were also evaluated. Except three kinds of cell lines that are resistant to three drugs commonly used in clinical practice, two kinds of cell lines that are resistant to MTAs were also evaluated.\nA549 (non-small-cell-lung cancer cell line), Caski (human epithelial cervical cancer cell line), HepG2 (human liver carcinoma cell line), MCF-7 (human breast carcinoma cell line), C42B (human prostate cancer line C42B), L-02 (human normal hepatocytes), RWPE-1 (human prostate epithelial cells) and MCF-10A (human normal mammary epithelial cells) were obtained from National Collection of Authenticated Cell Cultures (Shanghai, China). […]\nas §5, with “Then, CCK-8 reagents were added to cells and continued to culture for 2 h.” left out"}, "[5]": {"system": "five kinds of human cancer cell lines (A549, Caski, HepG2, C42B, MCF-7)", "assay": "CCK-8 assay, panel of five human cancer cell lines", "assay_type": "cell-based", "conditions": "48 h, read-out: IC50 values, range over five human cancer cell lines"}, "[6]": {"assay": "metabolic stability in human liver microsomes", "assay_type": "in vitro ADME", "experimental": "Metabolic stability is one of the most important properties in drug development. In this study, commercially available human liver microsomes were used to evaluate the metabolic stability of compound 14b. After incubation with human liver microsomes at 37 °C in vitro for an indicated time in a buffer solution containing a NADPH regenerating system, the residue of 14b was monitored by HPLC. CA-4 was used as the reference compound. […] As well known, a short half-life means a low bioavailability in vivo and is required for frequent administration with a high dose, which might result in drug accumulation and may produce related toxicity."}}, "data": [{"smiles": "COc1ccc(C(=O)c2ccc3c(ccn3C)c2)c2c1C=CC(C)(C)O2", "note": "[compound 14b, (5-methoxy-2,2-dimethyl-2H-chromen-8-yl)(1-methyl-1H-indol-5-yl)methanone]", "values": [{"measurement": "IC50", "setting": "[1]", "value": "51 ± 5", "unit": "nM"}, {"measurement": "intracellular tubulin-microtubule homeostasis", "setting": "A549 cells", "value": "heavily disturbed"}, {"measurement": "effect on tubulin polymerization", "setting": "tubulin; 5 μM, Figure 2A,B", "value": "inhibited tubulin polymerization in a colchicine-like manner"}, {"measurement": "IC50", "setting": "tubulin; in vitro, area under the curve", "value": "2070 ± 150", "unit": "nM"}, {"measurement": "IC50", "setting": "[2]; Homo sapiens, MCF-10A, 48 h, CCK-8, normal cells, read-out: IC50, Mean ± SE, MCF-10A", "value": "6260 ± 311", "unit": "nM"}, {"measurement": "Selectivity Ratio", "setting": "[2]; IC50 MCF-10A / IC50 MCF-7", "value": 231.7}, {"measurement": "IC50", "setting": "[3]", "value": "27 ± 6", "unit": "nM"}, {"measurement": "IC50", "setting": "[4]", "value": "122 ± 36", "unit": "nM"}, {"measurement": "IC50", "setting": "[5]", "value": "22 to 74", "unit": "nM"}, {"measurement": "half-life", "setting": "[6]", "value": 3.3, "unit": "h"}, {"measurement": "metabolic stability", "setting": "[6]", "value": "relatively stable in the liver microsomes"}, {"measurement": "Remaining%", "setting": "[6]; 37 °C, NADPH regenerating system, 180 min", "value": 56.17, "unit": "%"}, {"measurement": "remaining at 0.5 h", "setting": "[6]; human, liver microsomes, 37 °C, NADPH regenerating system, 30 min", "value": 96.2, "unit": "%"}, {"measurement": "remaining at 1 h", "setting": "[6]; human, liver microsomes, 37 °C, NADPH regenerating system, 60 min", "value": 91.4, "unit": "%"}, {"measurement": "remaining at 1.5 h", "setting": "[6]; human, liver microsomes, 37 °C, NADPH regenerating system, 90 min", "value": 84.1, "unit": "%"}, {"measurement": "remaining at 2 h", "setting": "[6]; human, liver microsomes, 37 °C, NADPH regenerating system, 120 min", "value": 74.5, "unit": "%"}, {"measurement": "remaining at 2.5 h", "setting": "[6]; human, liver microsomes, 37 °C, NADPH regenerating system, 150 min", "value": 67.8, "unit": "%"}, {"measurement": "remaining at 3 h", "setting": "[6]; human, liver microsomes, 37 °C, NADPH regenerating system, 180 min", "value": 50.6, "unit": "%"}, {"measurement": "remaining at 4 h", "setting": "[6]; human, liver microsomes, 37 °C, NADPH regenerating system, 240 min", "value": 43.4, "unit": "%"}]}]}
